Measured values reported in patent US20220041641A1, “QUATERNARY AMMONIUM SALTS AS INHIBITORS OF TRIMETHYLAMINE PRODUCTION” (Senda Biosciences, Inc., priority 2018, published 2022).

Experiments:
[1] = format: in vitro ADME; details: 1 µM
Procedure: This assay was used to assess the stability of a conjugate in a large intestine.
All experiments were performed in an anaerobic chamber containing 90% nitrogen, 5% hydrogen and 5% carbon dioxide. Colonic material was resuspended as a slurry (15% w/v final concentration) in pre-reduced, anaerobically sterilized dilution blanks (Anaerobe Systems AS-908). The colonic material was then inoculated into 96 well plates containing YCFAC media (Anaerobe Systems AS-680, 6.7 μL slurry into 1 mL total media). A compound was added to each individual well to reach a final analyte concentration of 1 μM, and the material was mixed by pipetting. Each sample was removed after set timepoints (0, 120, 240, 480, 1440, 2880 minutes after initiation of the assay), quenched with acetonitrile containing internal standard, and analyzed by LCMS.

[2] = format: in vitro ADME; details: simulated gi fluid, 1 µM, pH 1.6
Procedure: This assay was used to assess the stability of a conjugate in a stomach.
Medium was prepared by dissolving 2 g of sodium chloride in 0.6 L in ultrapure water (MilliQ®, Millipore Sigma, Darmstadt, Germany). The pH was adjusted to 1.6 with 1N hydrochloric acid, and the volume was then adjusted to 1 L with purified water.
60 mg FaSSIF powder (Biorelevant™, London, UK) were dissolved in 500 mL buffer (above). Pepsin was added (0.1 mg/mL) (Millipore Sigma, Darmstadt, Germany), and the solution was stirred. The resulting SGF media were used fresh for each experiment.
Test compounds were dissolved in DMSO stock to 1 mM. An aliquot of the DMSO stock solution was removed and diluted in the SGF Media in 15 mL falcon tubes to generate a total compound concentration of 1 μM. A 1 mL aliquot was immediately removed and diluted once with 1 volume of acetonitrile for T0 timepoint. The mixture was sealed and mixed at 37° C. in an incubator. Aliquots (1 mL) were removed at regular intervals and immediately quenched by the addition of 1 volume of acetonitrile. The resulting samples were analyzed by LCMS to determine degradation rates in SGF.

[3] = system: enzymatic activity in fecal matter; assay: Inhibition of enzymatic activity in fecal matter; format: cell-based; details: d9-choline 1 mM, 16 hours at 37° C., anaerobic, d9-TMA by LCMS
Procedure: Inhibition of enzymatic activity in fecal matter was determined by adding a substrate (d9-choline, 1 mM final concentration) and a compound in a range of concentrations in order to determine an IC50. After incubation for a designated 16 hours at 37° C. in anaerobic conditions, samples were be prepared for LCMS analysis, and the amount of d9-TMA produced was determined using LCMS analysis as in the Examples above.

[4] = Pharmacokinetic study of colon contents and plasma after oral dose of conjugate; format: in vivo, male C57B3L/6 mice; details: mouse, in vivo, po
Procedure: To confirm that the active agent component of the conjugate is released in the gastrointestinal tract, a pharmacokinetic study was conducted in male C57B3L/6 mice examining conjugate and active agent of concentrations in both the colon contents and plasma after oral dose of conjugate. Conjugate and active agent of were quantified by LCMS at 0 (pre-dose), 0.25, 0.5, 1, 2, 4, 6, 8, 12, and 24 hours post-dose of compound.

[5] = target: CutC from Proteus mirabilis (Proteus mirabilis, UniProt B4EYG1); assay: Cell-based assay for TMA production from a native producer (P. mirabilis); details: d9-TMA from 1 mM d9-choline, 5 h, 37° C.; value 10 given when no fit or % TMA remaining at 10 μM higher than 15%; read-out: Average IC50 Whole cell P. mirabilis
Procedure, shortened: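 Overnight anaerobic cultures of P. mirabilis or C. sporogenes, grown in BHI with 1 mM choline, were diluted and given 1 mM (trimethyl-d9)-choline plus compound at 10 μM final. After 5 h at 37° C., d9-TMA was quantified by LCMS.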

Chain of CutC from Proteus mirabilis (B4EYG1 entry or part of it): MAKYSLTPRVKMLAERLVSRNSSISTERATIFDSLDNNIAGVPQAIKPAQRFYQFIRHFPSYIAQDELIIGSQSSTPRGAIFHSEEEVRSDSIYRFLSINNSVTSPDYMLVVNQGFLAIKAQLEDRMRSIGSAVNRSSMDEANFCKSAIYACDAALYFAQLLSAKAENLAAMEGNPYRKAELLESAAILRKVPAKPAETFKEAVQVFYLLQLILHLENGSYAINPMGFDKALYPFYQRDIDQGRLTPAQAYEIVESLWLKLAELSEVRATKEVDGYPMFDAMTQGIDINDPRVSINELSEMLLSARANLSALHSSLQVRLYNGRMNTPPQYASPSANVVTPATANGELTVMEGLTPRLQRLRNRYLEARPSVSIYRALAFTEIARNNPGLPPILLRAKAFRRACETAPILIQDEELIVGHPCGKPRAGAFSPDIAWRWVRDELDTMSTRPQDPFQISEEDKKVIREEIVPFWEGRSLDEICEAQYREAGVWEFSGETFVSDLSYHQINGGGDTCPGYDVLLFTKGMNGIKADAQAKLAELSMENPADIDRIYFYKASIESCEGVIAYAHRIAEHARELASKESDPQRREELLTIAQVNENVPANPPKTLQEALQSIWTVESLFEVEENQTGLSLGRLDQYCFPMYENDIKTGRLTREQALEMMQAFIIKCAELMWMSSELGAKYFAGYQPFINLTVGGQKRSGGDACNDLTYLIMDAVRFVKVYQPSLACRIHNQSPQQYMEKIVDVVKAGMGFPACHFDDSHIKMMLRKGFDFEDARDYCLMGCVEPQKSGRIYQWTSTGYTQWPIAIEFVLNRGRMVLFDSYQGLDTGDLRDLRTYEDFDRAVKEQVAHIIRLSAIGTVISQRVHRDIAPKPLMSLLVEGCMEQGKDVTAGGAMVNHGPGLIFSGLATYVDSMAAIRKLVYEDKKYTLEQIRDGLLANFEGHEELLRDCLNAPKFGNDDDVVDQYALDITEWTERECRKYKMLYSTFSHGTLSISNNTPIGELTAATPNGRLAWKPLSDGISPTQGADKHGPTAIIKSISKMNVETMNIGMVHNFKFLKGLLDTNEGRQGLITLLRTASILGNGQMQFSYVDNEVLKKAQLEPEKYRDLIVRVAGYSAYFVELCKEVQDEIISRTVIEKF
Chain of CutC from Proteus mirabilis (B4EYG0 entry or part of it, further chain): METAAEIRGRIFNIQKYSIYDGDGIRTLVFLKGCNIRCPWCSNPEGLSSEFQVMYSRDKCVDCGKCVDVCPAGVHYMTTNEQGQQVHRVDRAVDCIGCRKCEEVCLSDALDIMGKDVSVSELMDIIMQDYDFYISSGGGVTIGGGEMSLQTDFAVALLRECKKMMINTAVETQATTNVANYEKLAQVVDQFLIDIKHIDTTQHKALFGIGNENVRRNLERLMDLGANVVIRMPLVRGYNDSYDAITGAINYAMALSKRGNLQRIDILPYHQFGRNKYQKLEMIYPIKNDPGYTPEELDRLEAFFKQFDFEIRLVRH

For CC(=O)OC[C@H]1O[C@@H](OCC[N+](C)(C)C2CC2)[C@H](OC(C)=O)[C@@H](OC(C)=O)[C@@H]1OC(C)=O.[I-] [Compound 80, N,N-dimethyl-N-(2-{[(3R,4S,5R,6R)-3,4,5-tris(acetyloxy)-6-[(acetyloxy)methyl]oxan-2-yl]oxy}ethyl)cyclopropanaminium Iodide], the “Assay 3- Colonic Material Stability Assay % Remaining at 24 hr” value [1] was 25%, the “Assay 1- FaSSGF Stability: % Remaining at 1 hr” value [2] was 145.32% and the IC50 [3] was 0.38 µM. For the same compound, the “Plasma Cmax” value [4] was “Not” and the IC50 [5] was at least 10 µM.
